Results on three compounds are retold here after patent US20050234046A1 (Kalypsys, Inc., priority 2004, published 2005).

Each structure is given as a SMILES string.

The EC50 is the concentration needed to bring the measured effect to its halfway point.

Holding throughout (assay): Transient transfection (transactivation) assay in CV-1 cells, GAL4-PPAR chimera, luciferase reporter
Common to all, as to assay type: cell-based
(In general: A reporter such as luciferase makes a cellular process visible.)

One assay deals with T1, PPAR delta (Homo sapiens, UniProt Q03181).
T1 construct: expressed in transfected cells; host or cells: CV-1 cells
T1 sequence (Q03181 211-439 limits assumed): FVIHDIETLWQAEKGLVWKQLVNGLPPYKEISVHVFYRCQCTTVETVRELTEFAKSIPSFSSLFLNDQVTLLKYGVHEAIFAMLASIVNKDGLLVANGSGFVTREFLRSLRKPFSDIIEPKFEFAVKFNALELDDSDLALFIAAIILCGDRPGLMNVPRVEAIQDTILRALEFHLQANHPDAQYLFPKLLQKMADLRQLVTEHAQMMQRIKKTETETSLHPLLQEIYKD

For a further assay, the target named is T2, PPAR gamma (Homo sapiens, UniProt P37231).
T2 construct: expressed in transfected cells; host or cells: CV-1 cells
T2 sequence (P37231 238-503 limits assumed): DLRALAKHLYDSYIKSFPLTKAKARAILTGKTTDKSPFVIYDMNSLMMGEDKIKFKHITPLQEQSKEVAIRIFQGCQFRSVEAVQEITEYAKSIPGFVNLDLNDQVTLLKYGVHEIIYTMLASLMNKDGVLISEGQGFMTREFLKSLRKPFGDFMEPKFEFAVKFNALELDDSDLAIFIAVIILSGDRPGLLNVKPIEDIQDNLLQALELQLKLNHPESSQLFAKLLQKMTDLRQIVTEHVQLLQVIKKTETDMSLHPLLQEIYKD

For a further assay, the target named is T3, PPAR alpha (Homo sapiens, UniProt Q07869).
T3 construct: expressed in transfected cells; host or cells: CV-1 cells
T3 sequence (Q07869 239-466 limits assumed): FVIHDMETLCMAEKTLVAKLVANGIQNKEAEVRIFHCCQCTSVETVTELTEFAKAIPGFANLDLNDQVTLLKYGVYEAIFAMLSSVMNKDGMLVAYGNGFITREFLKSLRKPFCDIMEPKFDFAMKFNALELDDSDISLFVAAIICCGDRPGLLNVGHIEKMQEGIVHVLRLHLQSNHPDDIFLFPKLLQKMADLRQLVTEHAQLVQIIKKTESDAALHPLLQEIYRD
The essentials: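 GAL4 DNA-binding domain fused to PPAR ligand binding domain, co-transfected into CV-1 cells with a luciferase reporter carrying four or five GAL4 sites. Replated cells in phenol-red free DME with 5% delipidated calf serum were treated with compound or 1% DMSO for 20-24 hours; luciferase read for EC50 and efficacy.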

Excerpt for PPAR delta: Compounds may be screened for functional potency in transient transfection assays in CV-1 cells or other cell types for their ability to activate the PPAR subtypes (transactivation assay). A previously established chimeric receptor system was utilized to allow comparison of the relative transcriptional activity of the receptor subtypes on the same synthetic response element and to prevent endogenous receptor activation from complicating the interpretation of results. […] The ligand binding domains for murine and human PPAR-alpha, PPAR-gamma, and PPAR-delta are each fused to the yeast transcription factor GAL4 DNA binding domain. CV-1 cells were transiently transfected with expression vectors for the respective PPAR chimera along with a reporter construct containing four or five copies of the GAL4 DNA binding site driving expression of luciferase. After 8-16 h, the cells are replated into multi-well assay plates and the media is exchanged to phenol-red free DME medium supplemented with 5% delipidated calf serum. 4 hours after replating, cells were treated with either compounds or 1% DMSO for 20-24 hours. Luciferase activity was then assayed with Britelite (Perkin Elmer) following the manufacturer's protocol and measured with either the Perkin Elmer Viewlux or Molecular Devices Acquest Xsee, for example, Kliewer, S. A., et. al. Cell 1995, 83, 813-819). Rosiglitazone is used as a positive control in the hPPAR-γ assay. Wy-14643 and GW7647 is used as a positive control in the hPPAR-α assay. GW501516 is used as the positive control in the hPPAR-δ assay.

`C[C@@H]1CN(c2ccc(C(F)(F)F)cn2)C[C@H](C)N1S(=O)(=O)c1ccc(F)c(CC(=O)O)c1F` [Example 231, {3-[2,6-Dimethyl-4-(5-trifluoromethyl-pyridin-2-yl)-piperazine-1-sulfonyl]-2,6-difluoro-phenyl}-acetic acid]: the figures for the EC50 at PPAR delta, at PPAR gamma and on PPAR alpha were 5 to 100 µM, above 100 µM and above 100 µM, respectively.
Turning to `C[C@@H]1CN(c2ccc(OC(F)(F)F)cc2)C[C@H](C)N1S(=O)(=O)c1ccc(F)c(CC(=O)O)c1F` [Example 232, {3-[2,6-Dimethyl-4-(4-trifluoromethoxy-phenyl)-piperazine-1-sulfonyl]-2,6-difluoro-phenyl}-acetic acid], the EC50 at PPAR delta was below 5 µM; at PPAR gamma, above 100 µM; on PPAR alpha, above 100 µM.
With `Cc1cc(CC(=O)O)cc(S(=O)(=O)N2C3CCC2CN(c2ccc(OC(F)(F)F)cc2)C3)c1` [Example 233, {3-Methyl-5-[3-(4-trifluoromethoxy-phenyl)-3,8-diaza-bicyclo[3.2.1]octane-8-sulfonyl]-phenyl}-acetic acid], the EC50 was below 5 µM at PPAR delta, 5 to 100 µM on PPAR gamma and 5 to 100 µM at PPAR alpha.
